From patent US20260250320A1, “LIPIDATED PEPTIDE INHIBITORS OF INTERLEUKIN-23 RECEPTOR” (Janssen Pharmaceutica NV, priority 2023, published 2026)
*1 amine or outer side, *2 acyl side, *3 side chain or, on linkers, in order; H or OH if unused. Where a SMILES comes first, the peptide text is derived from it. Bridges are numbered along the chain shown (N, C = ends). Side-chain parts run from the residue outwards. [ ]: non-standard residue; d: D form. The star is where a group is joined. ξ: configuration not given here. X23 = CN(CCOCCOCC(=O)N(C)CCOCCOCC(=O)*)C(=O)CC[C@H](C(=O)O)N(C)C(=O)CCCCCCCCCCCCCCCCC(=O)O; X16 = CC(C)(S[*:2])[C@H](CC(=O)CCOCCOCC[N+](C)(C)C)C(=O)[*:1]; Me3N+(CH2)2O(CH2)2O(CH2)2CO = C[N+](C)(C)CCOCCOCCC(=O)*; PEG12 = NCCOCCOCCOCCOCCOCCOCCOCCOCCOCCOCCOCCOCCC(=O)O; CH2CH2OCH2CH2OCH2CH2NMe3+ = C[N+](C)(C)CCOCCOCC*; Trp(7-Me) = Cc1cccc2c(C[C@H](N)C(=O)O)c[nH]c12; X37 = Cc1cccc2c1CC=C2C[C@H](N[*:1])C(=O)[*:2]; C20 diacid = O=C(O)CCCCCCCCCCCCCCCCCCC(=O)*; C18 diacid = O=C(O)CCCCCCCCCCCCCCCCC(=O)*; γGlu = O=C(O)[C@H](CCC(=O)[*:2])N[*:1]; 2Nal = N[C@@H](Cc1ccc2ccccc2c1)C(=O)O; AEF = NCCOc1ccc(C[C@H](N)C(=O)O)cc1; X2 = C[N+](C)(C)C[C@@H](CC(=O)O)N*; 3Pal = N[C@@H](Cc1cccnc1)C(=O)O; Lys(Me) = CNCCCC[C@H](N)C(=O)O; NMeK = CN[C@@H](CCCCN)C(=O)O; Pen = CC(C)(S)[C@H](N)C(=O)O; Suc = O=C(CCC(=O)[*:2])[*:1]; Thp = NC1(C(=O)O)CCOCC1; X1 = C[N+](C)(C)CCCCC*; ξN = NC(=O)CC(N)C(=O)O; AEEA = NCCOCCOCC(=O)O; Sar = CNCC(=O)O

Assays:
[1] = system: IL-23-stimulated phosphorylated STAT3 in peripheral blood mononuclear cells (PBMCs); assay: PBMC pSTAT3 Assay; format: cell-based; conditions: PBMCs from healthy donors; 30 min preincubation with peptide; IL-23 5 ng/mL for 30 min; phospho-STAT3 by MSD
Method in brief: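 Phospho-STAT3 quantified by Meso Scale assay in lysates of PBMCs exposed to IL-23 (5 ng/mL, 30 min, 37 °C) after 30 min peptide pretreatment. Cells were cryopreserved donor PBMCs activated 4 days with anti-CD3 plus IL-1β (100 ng/mL) and starved ~4 h; IC50 reported.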

IL-23R = target: T1, IL-23R (Homo sapiens, UniProt Q5VWK5); assay: IL23R Reporter Assay; format: cell-based; conditions: HEK293 cells containing IL-23R, IL-12Rβ1 and STAT-inducible firefly luciferase reporter; 10 ng/mL IL-23 (EC90); 5 h
T1 construct: HEK293 cells containing IL-23R, IL-12Rβ1 and a firefly luciferase reporter gene driven by a STAT-inducible promoter (Promega); host or cells: HEK293
T1 sequence (Q5VWK5 24-629): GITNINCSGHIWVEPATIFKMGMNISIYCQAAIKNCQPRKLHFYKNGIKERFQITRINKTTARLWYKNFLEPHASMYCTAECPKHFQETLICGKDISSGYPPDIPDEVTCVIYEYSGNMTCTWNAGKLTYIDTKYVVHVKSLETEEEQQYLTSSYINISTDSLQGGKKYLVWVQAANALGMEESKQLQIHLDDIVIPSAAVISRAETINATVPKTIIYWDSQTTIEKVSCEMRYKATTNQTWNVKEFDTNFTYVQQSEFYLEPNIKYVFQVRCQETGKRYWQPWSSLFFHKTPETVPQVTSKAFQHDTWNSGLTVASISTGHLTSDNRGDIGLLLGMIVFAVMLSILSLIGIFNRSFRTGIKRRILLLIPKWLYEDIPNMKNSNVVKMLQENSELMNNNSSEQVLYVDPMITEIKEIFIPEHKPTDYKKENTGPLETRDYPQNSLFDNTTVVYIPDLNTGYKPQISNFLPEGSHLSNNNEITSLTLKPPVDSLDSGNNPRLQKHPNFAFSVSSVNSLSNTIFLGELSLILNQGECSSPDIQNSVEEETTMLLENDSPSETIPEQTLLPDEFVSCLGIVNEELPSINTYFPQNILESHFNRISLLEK
Method in brief: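 IC50 values were fitted with a 4-parameter Hill equation to luciferase signal, scaled between IL-23-only wells (0% inhibition) and 30 μM reference inhibitor (100%). The readout was a STAT-inducible reporter in IL-23R/IL-12Rβ1 HEK293 cells, stimulated with added 10 ng/mL IL-23 (EC90) for 5 h at 37° C and developed with BioGlo.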

SMILES	IC50 (IL-23R)	IC50 [1]
CC(=O)NCCCC[C@@H]1NC(=O)[C@H](Cc2c[nH]c3c(C)cccc23)NC(=O)[C@H]([C@@H](C)O)NC(=O)[C@H](CC(N)=O)NC(=O)[C@@H](NC(=O)[C@@H](CCCNC(=N)N)NC(C)=O)C(C)(C)SSC(C)(C)[C@@H](C(=O)N[C@@H](Cc2ccc(OCCN)cc2)C(=O)N[C@@H](Cc2ccc3ccccc3c2)C(=O)NC2(C(=O)N[C@@H](CCC(=O)O)C(=O)N[C@@H](CC(N)=O)C(=O)N[C@@H](Cc3cccnc3)C(=O)N(C)[C@@H](CCCCNC(=O)COCCOCCN(C)C(=O)COCCOCCN(C)C(=O)CC[C@H](C(=O)O)N(C)C(=O)CCCCCCCCCCCCCCCCC(=O)O)C(N)=O)CCOCC2)NC1=O [compound 80, MeCO-r-Pen(3)-N-T-7MeW-K(Ac)-Pen(3)-AEF-2Nal-THP-E-N-3Pya-NMeK(PEG2NMePEG2NMegENMeC18OH)-CONH2] (Ac-[dR][Pen]NT[Trp(7-Me)]K(Ac)[Pen][AEF][2Nal][Thp]EN[3Pal][NMeK](X23)-NH2; disulfide 2-7)	50 to 500 nM	< 0.5 nM
CC(=O)NCCCC[C@@H]1NC(=O)[C@H](Cc2c[nH]c3c(C)cccc23)NC(=O)[C@H]([C@@H](C)O)NC(=O)[C@H](CC(N)=O)NC(=O)[C@@H](NC(=O)O)CCCC[C@@H](C(=O)N[C@@H](Cc2ccc(OCCN)cc2)C(=O)N[C@@H](Cc2ccc3ccccc3c2)C(=O)NC2(C(=O)N[C@@H](CCC(=O)O)C(=O)N[C@@H](CC(N)=O)C(=O)N[C@@H](Cc3cccnc3)C(=O)N(C)CC(=O)C[C@@H](CCCCNC(=O)COCCOCCNC(=O)COCCOCCNC(=O)CC[C@H](NC(=O)CCCCCCCCCCCCCCCC(=O)O)C(=O)O)C(=O)NCCOCCOCC[N+](C)(C)C)CCOCC2)NC1=O [compound 150, MeCO-Pen(3)-N-T-7MeW-K(Ac)-Pen(3)-AEF-2Nal-THP-E-N-3Pya-Sar-K(PEG2PEG2gEC18OH)-CONH(PEG3a)]	≥ 500 nM	≥ 5 nM
CC(=O)N(C)CCCC[C@@H]1NC(=O)[C@H](Cc2c[nH]c3c(C)cccc23)NC(=O)[C@H]([C@@H](C)O)NC(=O)[C@H](CC(=O)N(C)C)NC(=O)[C@@H](CC(=O)CCOCCOCC[N+](C)(C)C)C(C)(C)SSC(C)(C)[C@@H](C(=O)N[C@@H](Cc2ccc(OCCOCCOCC[N+](C)(C)C)cc2)C(=O)N[C@@H](Cc2ccc3ccccc3c2)C(=O)NC2(C(=O)N[C@@H](CCCCN(C)C(C)=O)C(=O)NC(CC(N)=O)C(=O)N[C@@H](Cc3cccnc3)C(=O)N(C)[C@@H](CCCCNC(=O)COCCOCCNC(=O)COCCOCCNC(=O)CC[C@H](NC(=O)CCCCCCCCCCCCCCCCCCC(=O)O)C(=O)O)C(N)=O)CCOCC2)NC1=O (some centres unmarked) [compound 112, cPEG3aCO-Pen(3)-N(N(Me)2)-T-7MeW-K(NMeAc)-Pen(3)-APEG3F-2Nal-THP-K(NMeAc)-N-3Pya-NMeK(PEG2PEG2gEC20OH)-CONH2] (D(NMe2)T[Trp(7-Me)][Lys(Me)](Ac)[Pen]Y(CH2CH2OCH2CH2OCH2CH2NMe3+)[2Nal][Thp][Lys(Me)](Ac)[ξN][3Pal][NMeK]([AEEA-AEEA-γGlu-C20 diacid])-NH2; linker N-5 via X16)	50 to 500 nM	0.5 to 5 nM
CC(=O)N(C)CCCC[C@H](NC(=O)C1(NC(=O)[C@H](Cc2ccc3ccccc3c2)NC(=O)[C@H](Cc2ccc(OCCCCC[N+](C)(C)C)cc2)NC(=O)[C@H]2NC(=O)[C@H](CCCCNC(=O)CCOCCOCCOCCOCCOCCOCCOCCOCCOCCOCCOCCOCCNC(=O)CC[C@H](NC(=O)CCCCCCCCCCCCCCCCC(=O)O)C(=O)O)NC(=O)[C@H](CC3=CCc4c(C)cccc43)NC(=O)[C@H]([C@@H](C)O)NC(=O)[C@H](CC(=O)N(C)C)NC(=O)[C@@H](NC(=O)CCOCCOCC[N+](C)(C)C)C(C)(C)SSC2(C)C)CCOCC1)C(=O)N[C@@H](CC(N)=O)C(=O)N[C@@H](Cc1cccnc1)C(=O)N(C)CC(=O)N(C)C [compound 124, cPEG3aCO-Pen(3)-N(N(Me)2)-T-7MeW-K(PEG12gEC18OH)-Pen(3)-TMAPF-2Nal-THP-K(NMeAc)-N-3Pya-Sar-CON(Me)2] ({Me3N+(CH2)2O(CH2)2O(CH2)2CO}-[Pen]D(NMe2)T[X37]K([PEG12-γGlu-C18 diacid])[Pen]Y(X1)[2Nal][Thp][Lys(Me)](Ac)N[3Pal][Sar]-NMe2; disulfide 1-6)	< 50 nM	< 0.5 nM

More lines, main results first:

IC50 (IL-23R)	SMILES	IC50 [1]
< 50 nM	Cc1cccc2c(C[C@@H]3NC(=O)[C@H]([C@@H](C)O)NC(=O)[C@H](CC(N)=O)NC(=O)[C@@H](NC(=O)[C@@H](CCCNC(=N)N)NC(=O)COCCOCCNC(=O)COCCOCCNC(=O)CC[C@H](NC(=O)CCCCCCCCCCCCCCCCC(=O)O)C(=O)O)C(C)(C)SSC(C)(C)[C@@H](C(=O)N[C@@H](Cc4ccc(OCCN)cc4)C(=O)N[C@@H](Cc4ccc5ccccc5c4)C(=O)NC4(C(=O)N[C@@H](CCC(=O)O)C(=O)N[C@@H](CC(N)=O)C(=O)N[C@@H](Cc5cccnc5)C(=O)N(C)CC(N)=O)CCOCC4)NC(=O)[C@H](CCCCNC(=O)CCC(=O)N[C@H](CC(=O)O)C[N+](C)(C)C)NC3=O)c[nH]c12 [compound 46, HOC18gEPEG2PEG2CO-r-Pen(3)-N-T-7MeW-K(d)-Pen(3)-AEF-2Nal-THP-E-N-3Pya-Sar-CONH2] ({C18 diacid-γGlu-AEEA-AEEA}-[dR][Pen]NT[Trp(7-Me)]K([Suc-X2])[Pen][AEF][2Nal][Thp]EN[3Pal][Sar]-NH2; disulfide 2-7)	< 0.5 nM
50 to 500 nM	CC(=O)NCCCC[C@@H]1NC(=O)[C@H](Cc2c[nH]c3c(C)cccc23)NC(=O)[C@H]([C@@H](C)O)NC(=O)[C@H](CCCCNC(=O)COCCOCCNC(=O)COCCOCCNC(=O)CC[C@H](NC(=O)CCCCCCCCCCCCCCCCC(=O)O)C(=O)O)NC(=O)[C@@H](NC(=O)[C@@H](CCCNC(=N)N)NC(=O)CCC(=O)N[C@H](CC(=O)O)C[N+](C)(C)C)C(C)(C)SSC(C)(C)[C@@H](C(=O)N[C@@H](Cc2ccc(OCCN)cc2)C(=O)N[C@@H](Cc2ccc3ccccc3c2)C(=O)NC2(C(=O)N[C@@H](CCC(=O)O)C(=O)N[C@@H](CC(N)=O)C(=O)N[C@@H](Cc3cccnc3)C(=O)N(C)CC(N)=O)CCOCC2)NC1=O [compound 18, succiniccarn-r-Pen(3)-K(PEG2PEG2gEC18OH)-T-7MeW-K(Ac)-Pen(3)-AEF-2Nal-THP-E-N-3Pya-Sar-CONH2] ({X2-Suc}-[dR][Pen]K([AEEA-AEEA-γGlu-C18 diacid])T[Trp(7-Me)]K(Ac)[Pen][AEF][2Nal][Thp]EN[3Pal][Sar]-NH2; disulfide 2-7)	< 0.5 nM
50 to 500 nM	CC(=O)N(C)CCCC[C@@H]1NC(=O)[C@H](CC2=CCc3c(C)cccc32)NC(=O)[C@H]([C@@H](C)O)NC(=O)[C@H](CC(=O)N(C)C)NC(=O)[C@@H](NC(=O)CCOCCOCC[N+](C)(C)C)C(C)(C)SSC(C)(C)C(CN[C@@H](Cc2ccc(OCCNC(=O)C[N+](C)(C)CCNC(=O)CCOCCOCCOCCOCCOCCOCCNC(=O)CC[C@H](CC(=O)CCCCCCCCCCCCCCCCCCC(=O)O)C(=O)O)cc2)C(=O)N[C@@H](Cc2ccc3ccccc3c2)C(=O)NC2(C(=O)N[C@@H](CCCCN(C)C(C)=O)C(=O)N[C@@H](CC(N)=O)C(=O)N[C@@H](Cc3cccnc3)C(C)N(C)CC(=O)N(C)C)CCOCC2)NC1=O (stereo partly drawn) [compound 140, cPEG3aCO-Pen(3)-N(N(Me)2)-T-7MeW-K(NMeAc)-Pen(3)-AEF(SP6PEG6gEC20OH)-2Nal-THP-K(NMeAc)-N-3Pya-Sar-CON(Me)2]	< 0.5 nM
